From patent US7928090B2, “External preparation composition” (Lion Corporation, priority 2002, dated 2011)

Columns and labels:
[1] = system: pigmentation on the backs of color guinea pigs; experiment: Whitening evaluation (UV-induced pigmentation); assay type: in vivo; set-up: key: +++: notably improved; ++: improved; +: a little improved; ±: no change; conditions: 0.05% in ethanol/propylene glycol (7:3), 30 μL once a day, five times a week, 4 weeks; visual change in pigmentation
Experimental: Back body hair of color guinea pigs were shaved by means of a hair clipper and a shaver, and they were irradiated with UV rays once a day, 4 times a week and 8 times in total, whereby 4 parts of pigmentation having an area of about 2.25 cm^2 were formed on the backs of the respective guinea pigs.
Each 30 μL of an ethanol/propylene glycol (7:3) solution containing 0.05% of various acyl glucosamine derivatives shown in the following Table 7 was applied thereon in a frequency of once a day and five times a week over 4 weeks, and a change in the pigmentation was visually evaluated according to four degrees of the following evaluation criteria. The solution containing no acyl glucosamine derivative was used for a comparative example.

[2] = system: skin roughness in the inside of a forearm of a human being; experiment: Skin roughness-improving test (SDS-induced skin roughness); assay type: in vivo; conditions: hydrophilic ointment with 0.05%, twice a day, 3 days; conductance relative to ointment with no tested substance = 100
Experimental: A 10% SDS solution was used to artificially form a skin roughness in the inside of a forearm of a human being, and a hydrophilic ointment blended with 0.05% of various acyl glucosamine derivatives shown in the following Table 5 was applied thereon twice a day.
The skin roughness-improving degree observed 3 days later after application was evaluated using a change in a stratum corneum water content as an index. The stratum corneum water content is measured in terms of a conductance (μS). The improving degree was shown by a relative value, wherein the conductance observed when applying the hydrophilic ointment blended with no acyl glucosamine derivative was set at 100, and the skin roughness-improving rate was calculated according to the following equation (IV). Skin roughness-improving rate (%)=[(conductance observed when applying the ointment blended with the tested substance)/(conductance observed when applying the ointment blended with no tested substance)]×100 (IV)

[3] = system: guinea pig skin; experiment: Continuous irritative test of guinea pig skin (Draize method); assay type: in vivo, guinea pig (Hartley series); conditions: Table 1; 0.5% in ethanol/propylene glycol (7:3), 50 μL once a day, 3 days straight; total of erythema and edema, full marks 8 points
Experimental: Each left and right two spots (4 spots/head) of applying parts having a frame of 2 cm×2 cm were provided on the back of a shaved guinea pig (Hartley series, 7 weeks of age, female, N=10), and each 50 μL of an ethanol/propylene glycol (7:3) solution containing 0.5% of the respective acyl glucosamine derivatives shown in the following Table 1 was applied once a day on the respective frames.
A skin irritative score after application for 3 days straight was evaluated according to the following evaluation criteria (Draize method). The above irritative score was shown by the total points (full marks: 8 points) of erythema and edema.
Evaluation Criteria of Skin Irritative Score:
3: middle to strong erythema
4: very strong erythema to crust
1: very slight edema formation
2: slight edema formation
3: middle edema formation
4: strong edema formation

[4] = system: back skin of hairless mice irradiated with UVB; experiment: Coarse texture-improving test; assay type: in vivo, hairless mice (hos: HR-1); conditions: 0.05% in ethanol/propylene glycol (7:3), 100 μL, 4 weeks; texture intersection points relative to non-irradiated group (control 24)
Experimental: (§1) Four (4) hairless mice per 1 group (hos: HR-1, 10 weeks of age, female) were irradiated on the back skin once a day with UVB at 40 mJ/cm^2 three times a week over a period of 6 weeks. After finishing irradiation, each 100 μL of an ethanol/propylene glycol (7:3) solution containing 0.05% of various acyl glucosamine derivatives shown in the following Table 4 or an ethanol/propylene glycol (7:3) solution as a control was applied on the mouse back in a frequency of once a day and five times a week over 4 weeks.
After finishing application, a replica agent (brand name SILFLO®; manufactured by UK FLEXICO DEVELOPMENTS LTD.) was used to obtain a replica of a mouse back skin. A replica of a UV-non-irradiated group (4 heads) was obtained as a control in the same manner.
The enlarged photographs of the respective replicas were taken through a macro lens (magnification: four times), and the photographs were used to evaluate “coarsening of the texture”.
The coarseness of the texture was defined by a “number of texture intersection point”, wherein a point in which three or more sulci cutis are joined is counted as one intersection point, and the number of the texture intersection points present in a square of 1 cm×1 cm was counted on the replica photograph.
An average point for the respective groups was calculated, and the texture-improving rate was calculated according to the following equation (III). Texture-improving rate (%)=[(number of texture intersection of applied group)/(number of texture intersection point of non-irradiated group)]×100 (III)

[5] = system: back skin of hairless mice irradiated with UVB; experiment: Wrinkle-improving test; assay type: in vivo, hairless mice (hos: HR-1); conditions: 0.05% in ethanol/propylene glycol (7:3), 100 μL once a day, five times a week, 8 weeks; versus control group
Experimental: as §1, with “at 50” for “at 40”, “mJ/cm^2 five” for “mJ/cm^2 three”, “of 10” for “of 6”, “Table 3” for “Table 4 or an ethanol/propylene glycol (7:3) solution as a control”, “over 8” for “over 4”
After finishing application for 8 weeks, the degree of wrinkles was visually evaluated according to the following evaluation criteria and calculation equation. A control group applied with the ethanol/propylene glycol (7:3) solution was evaluated as a control in the same manner.
Evaluation Criteria of the Degree of Wrinkles:
Evaluation point 0: a lot of fine striations is present on the back and the flank; fine striations run in a direction from the head to the tail; and the striations appear or disappear with the motion of the mouse.
Evaluation point 1: all fine striations along the spine are not observed; a few shallow and coarse wrinkles run perpendicularly to the head-to-tail direction; and the striations appear or disappear with the motion of the mouse.
The respective bodies were evaluated by an evaluation point of a 0.5 unit to calculate an average point for the respective groups, and the wrinkle-improving rate was calculated for the respective groups according to the following equation (II). Wrinkle-improving rate (%)=[(average value of the control group−average value of a glucosamine derivative-applied group)/(average value of the control group)]×100 (II)

[6] = system: acne patients; experiment: Acne-improvement evaluation; assay type: in vivo, human; conditions: essence with 0.05%, one month; for Evaluation X (worsened), number of subjects / Evaluation Δ (no change), number of subjects / Evaluation ⊚ (notably improved), number of subjects / Evaluation ◯ (improved), number of subjects: applied on face several times a day; for Acne treating effect: percentage of subjects rated improved or better
Experimental: Prepared was an essence for acne shown in the following composition example in which 0.05% of various acyl glucosamine derivatives shown in the following Table 6 was blended. An essence which was not blended with an acyl glucosamine derivative was prepared as a control.
Sixty acne patients were picked up as subjects to apply everyday the respective essences on the faces thereof several times a day, and the therapeutic effect against the acnes was visually evaluated a month later according to four degrees of the following evaluation criteria.
In the four degree evaluation described above, improvement (∘) or better effect (⊚) was regarded as “effective for treating acnes”, and the subjects showing a treating effect were shown by a numerical value (percentage).

SMILES | Whitening-improving effect [1] | Skin roughness-improving rate [2] | Draize score [3] | Texture-improving rate [4] | Wrinkle-improving rate [5] | Evaluation X (worsened), number of subjects [6] | Evaluation Δ (no change), number of subjects [6] | Evaluation ⊚ (notably improved), number of subjects [6] | Evaluation ◯ (improved), number of subjects [6] | Acne treating effect [6]
CCCCCCCCCCCCCCCCCCOCCOCCOCCOCCOCCOC(=O)N[C@H]1C(O)O[C@H](CO)[C@@H](O)[C@@H]1O (stereo partly drawn) [N-POE (5) octadecyletheroxycarbonyl-D-glucosamine] | ++ | 128% | 0.2 points | 92% | 73% | 0 | 3 | 0 | 2 | 40%
CCCCCCCCCCCCCCCCCCCCCCOCCOCCOCCOCCOCCOCCOCCOCCOCCOCCOC(=O)N[C@H]1C(O)O[C@H](CO)[C@@H](O)[C@@H]1O (stereo partly drawn) [N-POE (10) docosyletheroxycarbonyl-D-glucosamine] | ++ | 138% | 0.1 points | 88% | 82% | 0 | 3 | 0 | 2 | 40%
